This note sets out measurements from US4863951A, “Pharmacologically active amino-5,6,7,8-tetrahydronaphtho [2,3-B] furan compounds” (ADIR Et Cie, priority 1987, dated 1989).

Where a name gives a salt, the structure may show the parent alone. Read-outs that look alike come from different tables or passages of the source.

Test [1] concerns apomorphine-induced rearing-up. The experiment in a line: Antagonism of apomorphine-induced rearing-up behavior in mice. The class given is in vivo. Conditions: Mus musculus, ip, apomorphine 0.75 mg.kg^-1 s.c. As for the experimental part:
Studied in the test of antagonism of apomorphine-induced rearing-up following the subcutaneous administration of a dose of 0.75 mg.kg^-1 of this substance in mice, the compounds of general formula I act in a clear-cut manner at doses greater than or equal to 2.5 mg.kg^-1 (i.p.). The same results are observed when the compounds of general formula I are administered orally at a dose of 20 mg.kg^-1. The activity of the compounds was assessed according to the method described by Protais P, Costentin J and Schwartz J. C. in Psychopharmacology (1976), 50, p. 1-6.
(s=significant difference, p<0.05).

In test [2] the test system is apomorphine-induced stereotypy. Nature of the test: Antagonism of apomorphine-induced stereotypy in rats. The class given is in vivo. Conditions: Rattus norvegicus, ip, 0.5 h, apomorphine 1.5 mg.kg^-1 i.p., 30 minutes. The method, then:
The inhibitory activity of the compounds of the invention with respect to apomorphine- or amphetamine-induced stereotypy in rats was assessed using the scale of scoring of stereotyped movements described by Quinton R. M. and Halliwell G. in Nature (1963), 200, p. 178-179.
Apomorphine or amphetamine was administered to the animals intraperitoneally at a dose of 1.5 mg.kg^-1. The percentage inhibition (-) or potentiation (+) of the stereotypy score (% ISS) shown in Tables IV and V for apomorphine corresponds to a measurement time of 30 minutes. In contrast, the percentage inhibition of the stereotypy score shown in Table VI for amphetamine corresponds to a measurement time of 3 hours. […]

Test [3] concerns apomorphine-induced hypothermia. The experiment in a line: Antagonism with respect to apomorphine-induced hypothermia in mice. The class given is in vivo. Conditions: Mus musculus, ip, apomorphine 1 mg.kg^-1 s.c., after 2 hours. The method, then: Testing for an antagonism with respect to apomorphine-induced hypothermia in mice was performed according to the method described by CHERMAT R. and PONCELET M. in J. Pharmac. (1983), 14, No. 1, p. 93-97. The dose of apomorphine administered subcutaneously was 1 mg.kg^-1. Tables VII and VIII show the percentage antagonism of the hypothermia observed after 2 hours.

For test [4], the system named is isolation-induced aggression. The experiment in a line: Antiaggressive effects: isolation-induced aggression in mice. The class given is in vivo. As to conditions: isolated mice, i.p. The text has this:
The antiaggressive effects of the compounds of the invention were investigated by two methods, one of them testing for an inhibition of aggressive behavior in peviously isolated mice (Yen C. Y., Stanger A. L., and Millman N, Arch. Int. Pharmacodyn. Therap. (1959), 123, p. 179-185), and the other in isolated and bulbectomized rats (Garattini S. and Sigg E. B. "Aggressive Behaviour" p. 47-55 Ed. Excerpta Medica Found., Amsterdam, 1969).
(Tables IX and X, s=significant, p<0.05).

Test [5] relates to reserpine-induced hypothermia. Nature of the test: Antagonism of reserpine-induced hypothermia. Type of test: in vivo, Swiss CD male mice. Conditions: mice, reserpine 2.5 mg.kg^-1 i.p. As for the experimental part: The antidepressant effects of the compounds of the invention were investigated by assessing the antagonism of reserpine-induced hypothermia and the antagonism of the ponto-geniculo-occipital waves induced by the compound Ro4-1284 in cats.
The study is carried out on Swiss CD male mice (27-28 g). After distribution into groups of 10 animals each, reserpine is injected intraperitoneally at a dose of 2.5 mg.kg^-1. Three hours later, the compounds undergoing trial are administered intraperitoneally. The rectal temperature of the animals is measured one hour and two hours after the second treatment, and compared with the initial temperature To of these same animals, measured immediately before the administration of the compounds undergoing trial.

Where [6] appears, read: read-out: % inhibition of rearing-up, mice, i.p. dose 20 mg.kg^-1.
Where [7] appears, read: read-out: % inhibition of rearing-up, mice, i.p. dose 40 mg.kg^-1.
[8] abbreviates: read-out: % ISS (inhibition (-) or potentiation (+) of the stereotypy score), rats, i.p. dose 10 mg.kg^-1.
Where [9] appears, read: 2 h, read-out: % antagonism of hypothermia, mice, i.p. dose 10.
The mark [10] stands for this setting: 2 h, read-out: % antagonism of hypothermia, mice, i.p. dose 20.
Where [11] appears, read: read-out: % inhibition of rearing-up, mice, i.p. dose 10 mg.kg^-1.
[12] abbreviates: rats, i.p. dose 10 mg.kg^-1, read-out: % ISS (inhibition (-) or potentiation (+) of the stereotypy score).
Setting [13] is: mice, i.p. dose 10 mg.kg^-1, read-out: % inhibition of rearing-up.
Setting [14] is: mice, i.p. dose 20 mg.kg^-1, read-out: % inhibition of rearing-up.
[15] abbreviates: rats, i.p. dose 20 mg.kg^-1, read-out: % ISS (inhibition (-) or potentiation (+) of the stereotypy score).
[16] abbreviates: mice, i.p. dose 10, read-out: % antagonism of hypothermia.
Where [17] appears, read: mice, i.p. dose 20, read-out: % antagonism of hypothermia.
Setting [18] is: mice, i.p. dose 40 mg.kg^-1, read-out: % inhibition of rearing-up.

As for `CCCN(CCC)C1CCc2cc3c(cc2C1)OCC3` (racemic) [Example 5, dl-7-(N,N-Dipropylamino)-2,3,5,6,7,8-hexahydronaphtho[2,3-b]furan], the change in vivo at 20 mg/kg in test [1] (setting [6]) is 27%; in test [3] (setting [10]), -68%. Further, the change in vivo at 40 mg/kg in test [1] (setting [7]) was -54%. Besides, the change in vivo at 5 mg/kg is -3% in test [2] (read-out: % ISS (inhibition (-) or potentiation (+) of the stereotypy score), rats, i.p. dose 5 mg.kg^-1) and -20% in test [3] (2 h, read-out: % antagonism of hypothermia, mice, i.p. dose 5). The values for the change in vivo at 10 mg/kg in test [2] (setting [8]) and in test [3] (setting [9]) were 0% and -47%, respectively. For the same molecule, the “% of pairs of mice showing no sign of fighting” value worked out at 50% in test [4] (20 mg.kg^-1) and 89% in test [4] (40 mg.kg^-1).
For `CN(CC1CCCCC1)C1CCc2cc3c(cc2C1)OCC3` (racemic) [Example 10, dl-7-(N-Cyclohexylmethyl-N-methylamino)-2,3,5,6,7,8-hexahydronaphtho[2,3-b]furan hydrochloride], the change in vivo at 10 mg/kg in test [1] (setting [11]) was found to be 11%. Further, the change in vivo at 20 mg/kg in test [1] (setting [6]) stood at 11%. Moreover, in test [1] (setting [7]), the change in vivo at 40 mg/kg was -96%. Besides, the “% of pairs of mice showing no sign of fighting” value was determined as 0% in test [4] (5 mg.kg^-1), 11% in test [4] (10 mg.kg^-1) and 60% in test [4] (20 mg.kg^-1).
Turning to `NC1CCCc2cc3c(cc21)OCC3` (racemic) [Example 15, dl-8-Amino-2,3,5,6,7,8-hexahydronaphtho[2,3-b]furan hyrochloride], the change in vivo at 20 mg/kg in test [1] (setting [6]) was -9%. Besides, the change in vivo at 40 mg/kg in test [1] (setting [7]) came out at 0%.
`NC1CCCc2cc3c(cc21)CCO3` (racemic) [Example 18, dl-5-Amino-2,3,5,6,7,8-hexahydronaphtho[2,3,-b]furan hydrochloride]: the change in vivo at 20 mg/kg in test [1] (setting [6]) is -12%. Besides, the change in vivo at 40 mg/kg in test [1] (setting [7]) came out at 6%.
For the molecule `NC1CCc2cc3c(cc2C1)CCO3` (racemic) [Example 19, dl-6-Amino-2,3,5,6,7,8-hexahydronaphtho[2,3-b]furan hydrochloride], the change in vivo at 20 mg/kg in test [1] (setting [6]) is -57%. The change in vivo at 40 mg/kg in test [1] (setting [7]) was -90%.
Take `NC1CCc2cc3ccoc3cc2C1` (racemic) [Example 21, dl-7-Amino-5,6,7,8-tetrahydronaphtho[2,3-b]furan hydrochloride]: the change in vivo at 10 mg/kg in test [1] (setting [11]) was -56%. For the same molecule, the change in vivo at 20 mg/kg in test [1] (setting [6]) is -84%.
Regarding `O=C(O)CCCCCNC1CCc2cc3c(cc2C1)OCC3` (racemic) [Example 25, dl-6-{N-(2,3,6,7,8-Hexahydronaphtho[2,3-b]furan-7-yl)amino}hexanoic acid hydrochloride], the change in vivo at 10 mg/kg in test [2] (setting [12]) stood at 9%. In addition, the “% of pairs of mice showing no sign of fighting” value in test [4] (10 mg.kg^-1) amounted to 20%.
Turning to `CC(CCCC(=O)O)NC1CCc2cc3c(cc2C1)OCC3` (racemic) [Example 27], the change in vivo at 10 mg/kg in test [1] (setting [13]) is -46%; in test [2] (setting [12]), -5%; in test [3] (setting [16]) it was -5%. Further, the change in vivo at 20 mg/kg in test [1] (setting [14]) was -63%; in test [2] (setting [15]), -8%; in test [3] (setting [17]), -32%. Besides, the “% inhibition of hypothermia” value in test [5] (10 mg.kg^-1 i.p.) is -13%; in test [5] (20 mg.kg^-1 i.p.), -21%.
With `CC(CCCCC(=O)O)NC1CCc2cc3c(cc2C1)OCC3` (racemic) [Example 29, dl-6-{N-(2,3,5,6,7,8-Hexahydronaphtho[2,3-b]furan-7-yl)amino}-6-methylhexanoic acid hydrochloride], the change in vivo at 10 mg/kg in test [2] (setting [12]) was determined as 11%.
Regarding `CC(CCCCCC(=O)O)NC1CCc2cc3c(cc2C1)OCC3` (racemic) [Example 31, dl-7-{N-(2,3,5,6,7,8-Hexahydronaphtho[2,3-b]furan-7-yl)amino}-7-methylheptanoic acid hydrochloride], the change in vivo at 20 mg/kg was 5% in test [1] (setting [14]) and -3% in test [2] (setting [15]). Besides, the change in vivo at 40 mg/kg in test [1] (setting [18]) stood at 22%. The change in vivo at 10 mg/kg in test [2] (setting [12]) is 5%.
As to `OCCCCCCNC1CCc2cc3c(cc2C1)OCC3` (racemic) [Example 32, dl-7-[N-(6-Hydroxyhexyl)amino]-2,3,5,6,7,8-hexahydronaphtho[2,3-b]furan hydrochloride], the change in vivo at 20 mg/kg was -32% in test [1] (setting [14]), -5% in test [2] (setting [15]) and -13% in test [3] (setting [17]). Also, the change in vivo at 40 mg/kg in test [1] (setting [18]) is -40%. Moreover, the change in vivo at 10 mg/kg in test [2] (setting [12]) is -3%; in test [3] (setting [16]), -10%. Further, the “% of pairs of mice showing no sign of fighting” value in test [4] (5 mg.kg^-1) is given as 10%; in test [4] (20 mg.kg^-1), 30%. For the same molecule, the “% inhibition of hypothermia” value in test [5] (10 mg.kg^-1 i.p.) is on record as -1%; in test [5] (20 mg.kg^-1 i.p.), -29%.
On to `CCCNC1CCc2cc3c(cc2C1)OCC3` (racemic) [Example 34, dl-7-N-n-Propylamino)-2,3,5,6,7,8-hexahydronaphtho[2,3,-b]furan hydrochloride], for which the change in vivo at 10 mg/kg in test [1] (setting [11]) is -23%; in test [2] (setting [8]), -68%; in test [3] (setting [9]) it was -7%. In addition, the change in vivo at 40 mg/kg in test [1] (setting [7]) was -100%. Also, the change in vivo at 20 mg/kg in test [2] (read-out: % ISS (inhibition (-) or potentiation (+) of the stereotypy score), rats, i.p. dose 20 mg.kg^-1) is -70%; in test [3] (setting [10]) it was -16%.
Regarding `FC(F)(F)CNC1CCc2cc3c(cc2C1)OCC3` (racemic) [Example 35, dl-7-[N-(2,2,2-Trifluoroethyl)amino]-2,3,5,6,7,8-hexahdronaphtho[2,3-b]furan hydrochloride], the figures for the change in vivo at 10 mg/kg in test [1] (setting [13]) and in test [3] (setting [16]) were -30% and -16%, respectively. The figures for the change in vivo at 20 mg/kg in test [1] (setting [14]) and in test [3] (setting [17]) were -38% and -31%, respectively. Moreover, the “% inhibition of hypothermia” value is reported as -20% in test [5] (10 mg.kg^-1 i.p.) and -4% in test [5] (20 mg.kg^-1 i.p.).
As to `O=C1CCCN1C1CCc2cc3c(cc2C1)OCC3` (racemic) [Example 37, dl-7-(2-Oxo-1-pyrrolidinyl)-2,3,5,6,7,8-hexahydronaphtho[2,3-b]furan], the change in vivo at 10 mg/kg in test [2] (setting [12]) is -6%. Further, the change in vivo at 20 mg/kg in test [2] (setting [15]) is -14%.
